Experimental data published in patent publication US12077503B2, “Substituted cyclic amides and their use as herbicides” (FMC CORPORATION, priority 2015, dated 2024).

Tests used:
Format in all cases: in vivo
Kochia (Kochia scoparia) [1] = assay: Test A preemergence; conditions: Bassia scoparia, pre-emergence, 240 h, 0 to 100 scale where 0 is no effect and 100 is complete control, read-out: Kochia plant response rating
Summary of the method: (§1)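 Visual injury scores from 0, no effect, to 100, complete control, were assigned versus untreated controls roughly 10 d after treatment in the greenhouse. Test chemicals, formulated with surfactant in a non-phytotoxic solvent, were applied to planted seeds as a preemergence soil spray or postemergence to one- to two-leaf plants 2 to 10 cm tall, in loam–sand soil.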

[2] = test system: barnyardgrass (Echinochloa crus-galli); assay: Test A preemergence; conditions: Echinochloa crus-galli, pre-emergence, 240 h, 0 to 100 scale where 0 is no effect and 100 is complete control, read-out: Barnyardgrass plant response rating
Summary of the method: as §1

[3] = test system: giant foxtail (Setaria faberii); assay: Test A preemergence; conditions: Setaria faberi, pre-emergence, 240 h, 0 to 100 scale where 0 is no effect and 100 is complete control, read-out: Foxtail, Giant plant response rating
Summary of the method: as §1

[4] = test system: pigweed (Amaranthus retroflexus); assay: Test A preemergence; conditions: Amaranthus retroflexus, pre-emergence, 240 h, 0 to 100 scale where 0 is no effect and 100 is complete control, read-out: Pigweed plant response rating
[5] = test system: ragweed (common ragweed, Ambrosia elatior); assay: Test A preemergence; conditions: Ambrosia artemisiifolia, pre-emergence, 240 h, 0 to 100 scale where 0 is no effect and 100 is complete control, read-out: Ragweed plant response rating
Summary of the method: as §1

[6] = test system: ryegrass, Italian (Italian ryegrass, Lolium multiflorum); assay: Test A preemergence; conditions: Lolium multiflorum, pre-emergence, 240 h, 0 to 100 scale where 0 is no effect and 100 is complete control, read-out: Ryegrass, Italian plant response rating
Summary of the method: as §1

[7] = test system: Galium (catchweed bedstraw, Galium aparine); assay: Test A postemergence; conditions: Galium, post-emergence, 240 h
Summary of the method: as §1

Kochia (Kochia scoparia) [8] = assay: Test A postemergence; conditions: Bassia scoparia, post-emergence, 240 h
Summary of the method: as §1

[9] = test system: barnyardgrass (Echinochloa crus-galli); assay: Test A postemergence; conditions: Echinochloa crus-galli, post-emergence, 240 h
Summary of the method: as §1

[10] = test system: blackgrass (Alopecurus myosuroides); assay: Test A postemergence; conditions: Alopecurus myosuroides, post-emergence, 240 h
Summary of the method: as §1

corn (Zea mays) = assay: Test A postemergence; conditions: Zea mays, post-emergence, 240 h
Summary of the method: as §1

[11] = test system: giant foxtail (Setaria faberii); assay: Test A postemergence; conditions: Setaria faberi, post-emergence, 240 h
Summary of the method: as §1

[12] = test system: pigweed (Amaranthus retroflexus); assay: Test A postemergence; conditions: Amaranthus retroflexus, post-emergence, 240 h, 125 g ai/ha, postemergence, visual injury vs untreated controls after approx. 10 d; 0 = no effect, 100 = complete control; read-out: Pigweed plant response rating (0 to 100 scale)
Summary of the method: as §1

[13] = test system: ragweed (common ragweed, Ambrosia elatior); assay: Test A postemergence; conditions: Ambrosia artemisiifolia, post-emergence, 240 h, 125 g ai/ha, postemergence, visual injury vs untreated controls after approx. 10 d; 0 = no effect, 100 = complete control; read-out: Ragweed plant response rating (0 to 100 scale)
Summary of the method: as §1

[14] = test system: ryegrass, Italian (Italian ryegrass, Lolium multiflorum); assay: Test A postemergence; conditions: Lolium multiflorum, post-emergence, 240 h, 125 g ai/ha, postemergence, visual injury vs untreated controls after approx. 10 d; 0 = no effect, 100 = complete control; read-out: Ryegrass, Italian plant response rating (0 to 100 scale)
Summary of the method: as §1

[15] = test system: wheat (Triticum aestivum); assay: Test A postemergence; conditions: Triticum aestivum, post-emergence, 240 h, 125 g ai/ha, postemergence, visual injury vs untreated controls after approx. 10 d; 0 = no effect, 100 = complete control; read-out: Wheat plant response rating (0 to 100 scale)
Summary of the method: as §1

[16] = test system: barnyardgrass (Echinochloa crus-galli); assay: Test B flooded paddy test; conditions: Echinochloa crus-galli, 250 g ai/ha, Flood; 0 to 100 scale where 0 is no effect and 100 is complete control; read-out: Barnyardgrass plant response rating
Summary of the method: (§2)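 Rating scale 0–100 (visual, vs untreated controls) after a 13–15 d greenhouse period; application to the flood layer, 3 cm above soil and maintained; plants at 2-leaf stage when treated.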

[17] = test system: ducksalad (Heteranthera limosa); assay: Test B flooded paddy test; conditions: Heteranthera limosa, 250 g ai/ha, Flood; 0 to 100 scale where 0 is no effect and 100 is complete control; read-out: Ducksalad plant response rating
Summary of the method: as §2

rice (Oryra sativa) = assay: Test B flooded paddy test; conditions: Oryza sativa, 250 g ai/ha, Flood; 0 to 100 scale where 0 is no effect and 100 is complete control; read-out: Rice plant response rating
Summary of the method: as §2

[18] = test system: sedge, umbrella (small-flower umbrella sedge, Cyperus difformis); assay: Test B flooded paddy test; conditions: Cyperus difformis, 250 g ai/ha, Flood; 0 to 100 scale where 0 is no effect and 100 is complete control; read-out: Sedge, Umbrella plant response rating
Summary of the method: as §2

[19] = 125 g ai/ha, preemergence, visual injury rating, approximately 10 d

Cc1ccc([C@H]2CN(C)C(=O)[C@@H]2C(=O)Nc2cccc(F)c2C)cc1 [Compound 1186] gave a pest or weed control at 31 g/ha (Kochia (Kochia scoparia) [1]; 31 g ai/ha, Preemergence) of 70%, a pest or weed control at 125 g/ha (Kochia (Kochia scoparia) [1]; [19]) of 80% and a pest or weed control at 31 g/ha ([2]; 31 g ai/ha, Preemergence) of 90%. It also gave a pest or weed control at 125 g/ha [2, 19] of 100%, a pest or weed control at 31 g/ha ([3]; 31 g ai/ha, Preemergence) of 100% and a pest or weed control at 125 g/ha [3, 19] of 100%. For the same compound, the pest or weed control at 31 g/ha ([4]; 31 g ai/ha, Preemergence) was 30%, the pest or weed control at 125 g/ha [4, 19] was 70% and the pest or weed control at 31 g/ha ([5]; 31 g ai/ha, Preemergence) was 0%. The pest or weed control at 125 g/ha [5, 19] was 60%, the pest or weed control at 31 g/ha ([6]; 31 g ai/ha, Preemergence) was 20% and the pest or weed control at 125 g/ha [6, 19] was 70%. For the same compound, the pest or weed control at 125 g/ha ([7]; 125 g ai/ha, postemergence, visual injury vs untreated controls after approx. 10 d, 0 = no effect, 100 = complete control, read-out: Galium plant response rating (0 to 100 scale)) was 60%, the pest or weed control at 31 g/ha ([7]; Postemergence, 31 g ai/ha, visual injury after approx. 10 d, 0 to 100 scale, 0 no effect, 100 complete control, read-out: Plant response rating, Galium) was 50% and the pest or weed control at 125 g/ha (Kochia (Kochia scoparia) [8]; 125 g ai/ha, postemergence, visual injury vs untreated controls after approx. 10 d, 0 = no effect, 100 = complete control, read-out: Kochia plant response rating (0 to 100 scale)) was 60%. For the same compound, the pest or weed control at 31 g/ha (Kochia (Kochia scoparia) [8]; Postemergence, 31 g ai/ha, visual injury after approx. 10 d, 0 to 100 scale, 0 no effect, 100 complete control, read-out: Plant response rating, Kochia) was 20%, the pest or weed control at 125 g/ha ([9]; 125 g ai/ha, postemergence, visual injury vs untreated controls after approx. 10 d, 0 = no effect, 100 = complete control, read-out: Barnyardgrass plant response rating (0 to 100 scale)) was 100% and the pest or weed control at 31 g/ha ([9]; Postemergence, 31 g ai/ha, visual injury after approx. 10 d, 0 to 100 scale, 0 no effect, 100 complete control, read-out: Plant response rating, Barnyardgrass) was 100%. For the same compound, the pest or weed control at 125 g/ha ([10]; 125 g ai/ha, postemergence, visual injury vs untreated controls after approx. 10 d, 0 = no effect, 100 = complete control, read-out: Blackgrass plant response rating (0 to 100 scale)) was 80%, the pest or weed control at 31 g/ha ([10]; Postemergence, 31 g ai/ha, visual injury after approx. 10 d, 0 to 100 scale, 0 no effect, 100 complete control, read-out: Plant response rating, Blackgrass) was 70% and the plant injury at 125 g/ha (corn (Zea mays); 125 g ai/ha, postemergence, visual injury vs untreated controls after approx. 10 d, 0 = no effect, 100 = complete control, read-out: Corn plant response rating (0 to 100 scale)) was 80%. The Corn plant response rating (crop injury, 0 = no effect, 100 = complete kill) at 31 g/ha (corn (Zea mays); Postemergence, 31 g ai/ha, visual injury after approx. 10 d, 0 to 100 scale, 0 no effect, 100 complete control) was 30%, the pest or weed control at 125 g/ha ([11]; 125 g ai/ha, postemergence, visual injury vs untreated controls after approx. 10 d, 0 = no effect, 100 = complete control, read-out: Foxtail, Giant plant response rating (0 to 100 scale)) was 90% and the pest or weed control at 31 g/ha ([11]; Postemergence, 31 g ai/ha, visual injury after approx. 10 d, 0 to 100 scale, 0 no effect, 100 complete control, read-out: Plant response rating, Foxtail, Giant) was 90%. The pest or weed control at 125 g/ha [12] was 0%, the pest or weed control at 125 g/ha [13] was 70% and the pest or weed control at 125 g/ha [14] was 50%. For the same compound, the plant injury at 125 g/ha [15] was 60%, the pest or weed control at 250 g/ha [16] was 75% and the pest or weed control at 250 g/ha [17] was 60%. The pest or weed control at 250 g/ha (rice (Oryra sativa)) was 30% and the pest or weed control at 250 g/ha [18] was 0%.
